{"source": "patent US20140220552A1", "about": "“BLOOD COLLECTION DEVICES CONTAINING CONTACT PATHWAY INHIBITION ADDITIVES” (Becton, Dickinson and Company, priority 2013, published 2014)", "key": {"[1]": {"system": "contact coagulation pathway", "assay": "activated partial thromboplastin time (aPTT) assay in plasma", "format": "biochemical, human", "conditions": "plasma containing inhibitor, FIG. 6, anti-FXI antibody at 7.5 μg/mL", "excerpt": "(§1) FIG. 6 was obtained by performing matched aPTT, PT, and TT assays from plasma containing various inhibitors. These assays are well known to those skilled in the art and are not described in great detail here. […] Corn trypsin inhibitor (CTI) was included as a control since it is the factor XIIa inhibitor currently available in a blood collection tube.\n(§2) Citrated human WB is transferred from a blood collection bag into coated (siliconized) glass or plastic blood collection tubes, or uncoated glass, polypropylene (PP), polystyrene (PS), or polyethylene terephthalate (PET) conical bottom tubes, either alone or in the presence of inhibitors targeting kallikrein (e.g. aprotinin) or FXIa (e.g. anti-human Factor XI antibody). After 15 minutes incubation, the TEG R value is obtained immediately after addition of 10 mM CaCl2. Matched plasma specimens are analyzed by the CAT in the presence and absence of 1 picomolar Tissue Factor (TF) and by activated partial thromboplastin time (APTT; Stago Compact). Data are analyzed by ANOVA with Tukey's post-test and by linear regression."}, "TF coagulation pathway": {"system": "TF coagulation pathway", "assay": "PT assay in plasma (high dose tissue factor)", "format": "biochemical, human", "conditions": "for thrombin generation in tests that monitor the TF coagulation pathway exclusively: identical samples as aPTT, FIG. 6 lower panels; for PT clotting time result: plasma containing inhibitor, FIG. 6", "excerpt": "as §1\nThis verifies that aprotinin exclusively suppresses thrombin formation through the contact coagulation pathway but not through the TF pathway."}, "thrombin": {"system": "thrombin", "assay": "TT assay in plasma (exogenous thrombin)", "format": "biochemical, human", "conditions": "plasma containing inhibitor, FIG. 6", "excerpt": "as §1"}, "[2]": {"system": "contact coagulation pathway", "assay": "Thrombelastography (TEG) citrated-native whole blood clotting time (R time) after recalcification", "format": "biochemical, human", "description": "FIGS. 2A and 2B are a table and chart comparing recalcified clotting times for tubes made from various materials using a Thrombelastograph® (TEG) 5000 Hemostasis Analyzer. […] Briefly, BD Vacutainer® 369714 glass and 363083 plastic citrate tubes were washed and dried to remove the citrate additive. Afterwards, tubes were filled to capacity using a commercial bag of citrated human whole blood. Samples were incubated for 15 minutes at room temperature with gentle rocking to promote blood contact with the surface material of the tube wall. Finally, the whole blood clotting time was measured using combined recalcification and TEG. […] Furthermore, it is important to note that only highly sensitive coagulation assays that are performed in the absence of a strong contact pathway activator will be sensitive to these differences.\nThe titration was performed by evaluating whole blood clotting time (TEG R time). A minimally effective dose was determined at 1000 kallikrein inhibitor units (1000 KIU) per mL of blood as concentrations below that only provided mean clotting times that were either equivalent or lower to that of siliconized glass.\nThe titration was performed by evaluating whole blood clotting time (TEG R time).\nas §2\nAs shown in FIG. 4(A) various concentrations of aprotinin were used in tests to determine the impact on whole blood clotting time using TEG. […]"}, "thrombin generation": {"system": "thrombin generation", "assay": "Calibrated Automated Thrombogram (CAT) thrombin generation assay in citrated plasma", "format": "biochemical, human", "excerpt": "FIGS. 3A and 3B is a table and chart comparing thrombin generation from citrated plasma obtained from tubes made of various materials using the Calibrated Automated Thrombogram (CAT) assay. The CAT assay, rather than measuring coagulation, combines the use of a fluorogenic substrate that is cleaved in the presence of thrombin as well as a calibrator to provide a quantitative measurement of thrombin generation in a recalcified plasma sample. The predominant use of this assay is to examine the thrombin generation profile of a clinical research sample in response to tissue factor (TF). […] The charts contained in FIG. 3B provide example thrombin generation curves that were used to populate the data table in FIG. 3A.\nas §2, with “After 15 minutes incubation, the TEG R value is obtained immediately after addition of 10 mM CaCl2.” left out, “regression. […]” for “regression.”"}, "[3]": {"assay": "sterilization stability of the additive in a blood collection tube", "format": "physicochemical", "excerpt": "FIG. 7 provides a comparison of kallikrein, factor XIIa, and factor IX inhibition for the purposes of mitigating contact pathway contributions to thrombin generation.\nAn advantage of using aprotinin over CTI or anti-Factor XI antibody is that neither of the latter two inhibitors can be present in a tube that has been sterilized."}}, "note": "“Also recorded” adds a separate entry of the source."}
{"substance": "Corn trypsin inhibitor [CTI]", "values": [{"measurement": "aPTT result", "setting": "[1]", "result": "Equivalent inhibition"}, {"measurement": "thrombin generation in tests that monitor the TF coagulation pathway exclusively", "setting": "TF coagulation pathway", "result": "unaffected"}, {"measurement": "PT clotting time result", "setting": "TF coagulation pathway", "result": "none of the inhibitors produced prolonged PT or TT assays"}, {"measurement": "TT clotting time result", "setting": "thrombin", "result": "none of the inhibitors produced prolonged PT or TT assays"}]}
{"substance": "aprotinin", "values": [{"measurement": "whole blood clotting time (TEG R time)", "setting": "[2]; 2000 KIU/mL aprotinin, blood in uncoated glass, compared with siliconized glass or plastic", "result": "longer clotting times than that of blood stored in either siliconized glass or plastic"}, {"measurement": "minimally effective dose by whole blood clotting time (TEG R time)", "setting": "[2]; aprotinin titration in citrated blood, lower concentrations gave clotting times equivalent or lower to siliconized glass", "result": "1000 KIU per mL of blood"}, {"measurement": "aprotinin concentration mitigating the contact coagulation pathway in uncoated glass tubes to a level equivalent to siliconized glass or plastic tubes", "setting": "[2]; citrated blood in uncoated glass tubes, TEG", "result": "≥ 1000", "unit": "KIU/mL"}, {"measurement": "mitigation of contact pathway contributions to thrombin generation (CAT)", "setting": "thrombin generation; glass and plastic citrate tubes, FIG. 7", "result": "robustly diminished; also recorded: equivalent to that of CTI and anti-Factor XI antibody"}, {"measurement": "thrombin generation (CAT), effect of increasing aprotinin", "setting": "thrombin generation; siliconized glass and plastic tubes, FIG. 4B", "result": "delays and reduces thrombin generation in a dose dependent fashion; also recorded: thrombin generation is decreased and delayed"}, {"measurement": "aPTT result", "setting": "[1]", "result": "equivalent to or greater than the time to generate thrombin in the presence of CTI and anti-Factor XI antibody"}, {"measurement": "aPTT result", "setting": "[1]; listed as Aprotinin", "result": "dose dependent effect"}, {"measurement": "thrombin generation in tests that monitor the TF coagulation pathway exclusively", "setting": "TF coagulation pathway", "result": "unaffected"}, {"measurement": "PT clotting time result", "setting": "TF coagulation pathway", "result": "none of the inhibitors produced prolonged PT or TT assays"}, {"measurement": "TT clotting time result", "setting": "thrombin", "result": "none of the inhibitors produced prolonged PT or TT assays"}, {"measurement": "sterilization stability", "setting": "[3]", "result": "sterilization stable"}]}
